Legend:
PKMYT1 [1] = biological target: T1, PKMYT1 (Homo sapiens, UniProt Q99640)
T1 sequence (Q99640 1-499): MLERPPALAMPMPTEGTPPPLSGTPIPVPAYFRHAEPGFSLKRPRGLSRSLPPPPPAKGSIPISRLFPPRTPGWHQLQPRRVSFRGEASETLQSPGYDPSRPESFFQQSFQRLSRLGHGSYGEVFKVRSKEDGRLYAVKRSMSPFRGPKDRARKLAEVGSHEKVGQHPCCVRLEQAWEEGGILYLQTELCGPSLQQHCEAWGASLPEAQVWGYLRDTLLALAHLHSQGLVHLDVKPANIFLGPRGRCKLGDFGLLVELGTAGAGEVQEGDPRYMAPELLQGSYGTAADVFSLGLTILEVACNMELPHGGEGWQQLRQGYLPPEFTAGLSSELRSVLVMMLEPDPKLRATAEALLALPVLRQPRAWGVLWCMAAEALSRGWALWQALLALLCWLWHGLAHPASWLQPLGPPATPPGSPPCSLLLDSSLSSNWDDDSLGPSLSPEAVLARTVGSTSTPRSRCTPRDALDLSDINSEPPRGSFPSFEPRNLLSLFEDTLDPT

in vitro [2] = conditions: human, Caco-2
in vitro [3] = conditions: human, hepatocytes
[4] = CD-1 mouse pharmacokinetic study; conditions: female, in vivo, iv, 1 mg/kg
in vivo [5] = conditions: male, cynomolgus monkey, plasma, iv, 0.5 mg/kg
in vivo [6] = conditions: male, Sprague-Dawley, rat, iv, 1 mg/kg
in vivo [7] = conditions: male, beagle, dog, plasma, iv, 0.5 mg/kg
[8] = system: OVCAR3 CCNE1 amplified xenograft; conditions: PO twice daily (BID), OVCAR3 model ref 6; cited from earlier work
PKMYT1 [9] = biological target: T1, PKMYT1; assay: Fluorescence polarization competitive displacement screen with Tracer 178; conditions: Tracer 178 binding probe

Question: For `NC(=O)c1c(N)n(-c2cccc3[nH]ccc23)c2nc3ccccc3nc12` [Compound 11, 2-amino-1-(1H-indol-4-yl)pyrrolo[3,2-b]quinoxaline-3-carboxamide], which “PKMYT1 inhibition in biochemical ADP release enzymatic assay (in words)” value (shortened to “PKMYT1 inhibition”) (PKMYT1 [1]) is on record?
Answer: inactive

Question: With `Cc1ccccc1-n1c(N)c(C(N)=O)c2nc3ccccc3nc21` [Compound 2, reference compound] as the compound, how does the “PKMYT1 inhibition” value (PKMYT1 [1]) read?
Answer: inactive

Question: For `Cc1cc(O)ccc1-n1c(N)c(C(N)=O)c2nc3ccccc3nc21` [Compound 3, 2-amino-1-(4-hydroxy-2-methyl-phenyl)pyrrolo[3,2-b]quinoxaline-3-carboxamide], which “PKMYT1 inhibition” value (PKMYT1 [1]) is on record?
Answer: inactive

Question: Which “PKMYT1 inhibition” value (PKMYT1 [1]) does the source give for `NC(=O)c1c(N)n(-c2cccc3[nH]nnc23)c2nc3ccccc3nc12` [Compound 12, 2-amino-1-(1H-benzotriazol-4-yl)pyrrolo[3,2-b]quinoxaline-3-carboxamide] here?
Answer: inactive

Question: For `Cc1c(O)ccc(Cl)c1-n1c(N)c(C(N)=O)c2nc3ccccc3nc21` [Compound 17, 2-amino-1-(6-chloro-3-hydroxy-2-methyl-phenyl)pyrrolo[3,2-b]quinoxaline-3-carboxamide], which Papp A→B (in vitro [2]) is on record?
Answer: 14.1 ×10⁻⁶ cm/s

Question: Which hepatocyte CLint (in vitro [3]) does the source give for `Cc1ccc(O)c(C)c1-n1c(N)c(C(N)=O)c2cc(Cl)cnc21` [Compound 55, (S)-2-amino-5-chloro-1-(3-hydroxy-2,6-dimethyl-phenyl)pyrrolo[2,3-b]pyridine-3-carboxamide] here?
Answer: 4.5 µL/min/1e6 cells

Question: What about the clearance at 24 h [4] of the same compound?
Answer: 59.2 mL/min/kg

Question: What about the clearance at 24 h (in vivo [5]) of the same compound?
Answer: 19.4 mL/min/kg

Question: What about the clearance at 24 h (in vivo [6]) of the same compound?
Answer: 25.6 mL/min/kg

Question: What about the clearance at 24 h (in vivo [7]) of the same compound?
Answer: 21.3 mL/min/kg

Question: For `NC(=O)c1c(N)n(-c2c(Cl)ccc(O)c2Cl)c2nc3ccccc3nc12` [Compound 18, 2-amino-1-(2,6-dichloro-3-hydroxy-phenyl)pyrrolo[3,2-b]quinoxaline-3-carboxamide], which Papp A→B (in vitro [2]) is on record?
Answer: 18.8 ×10⁻⁶ cm/s

Question: Which clearance at 24 h [4] does the source give for `Cc1cc2c(C(N)=O)c(N)n(-c3c(C)ccc(O)c3C)c2nc1C` [RP-6306, (S)-2-amino-1-(3-hydroxy-2,6-dimethyl-phenyl)-5,6-dimethyl-pyrrolo[2,3-b]pyridine-3-carboxamide] here?
Answer: 30.4 mL/min/kg

Question: And the maximum tolerated dose [8]?
Answer: 20 mg/kg

Question: What about the clearance at 24 h (in vivo [7]) of the same compound?
Answer: 13.1 mL/min/kg

Question: For `Cc1nc(Nc2ncc(C(=O)Nc3c(C)cccc3Cl)s2)cc(N2CCN(CCO)CC2)n1` [dasatinib], which “result in focused screen of 560 known kinase inhibitors” value (PKMYT1 [9]) is on record?
Answer: potent hits

Question: Which “PKMYT1 inhibition” value (PKMYT1 [1]) does the source give for `Cc1ccc(C(F)F)cc1-n1c(N)c(C(N)=O)c2nc3ccccc3nc21` [Compound 14, 2-amino-1-[5-(difluoromethyl)-2-methyl-phenyl]pyrrolo[3,2-b]quinoxaline-3-carboxamide] here?
Answer: inactive

Question: For `Cc1ccc(N)cc1-n1c(N)c(C(N)=O)c2nc3ccccc3nc21` [Compound 9, 2-amino-1-(5-amino-2-methyl-phenyl)pyrrolo[3,2-b]quinoxaline-3-carboxamide], which “PKMYT1 inhibition” value (PKMYT1 [1]) is on record?
Answer: inactive

Question: With `NC(=O)c1c(N)n(-c2cccc3[nH]cnc23)c2nc3ccccc3nc12` [Compound 13, 2-amino-1-(1H-benzimidazol-4-yl)pyrrolo[3,2-b]quinoxaline-3-carboxamide] as the compound, how does the “PKMYT1 inhibition” value (PKMYT1 [1]) read?
Answer: inactive
